Results on 13 compounds are retold here after patent publication US5332736A, “Anti-convulsant aroyl aminoacylpyrroles” (Ortho Pharmaceutical Corporation, priority 1993, dated 1994).

Structures are written as SMILES.

In this assay the test system is toxic extensor seizure. In words: maximal electroshock test (MES), mouse; block of the toxic extensor seizure (Swinyard 1952 method). In kind it is in vivo. The following applies: ip. The text has this: The compound of formula (I) are useful as anticonvulsant agents. The anticonvulsant activity of the subject compounds was determine using a standard "maximal electroshock test" (MES). In this test, activity is indicated by a block of the toxic extensor seizure, as described by Swinyard et al in J. Pharmacol,. Exptl. Therap. 106, 319 (1952). A more recent description of current anticonvulsant drug screening is given in Swinyard et al., in Epilepsia 19, 409 (1978).

In general, ED50 refers to the midpoint of the dose-response relation. A higher ED50 goes with a need for a large dose. For `Cn1cc(C(=O)CN2CCCCC2)cc1C(=O)c1ccc(Cl)cc1` [Example 9-1], the ED50 was found to be 24.4 mg/kg.

`Cc1c(C(=O)CN2CCOCC2)c(C)n(C)c1C(=O)c1ccc(Cl)cc1` [Example 9-2] showed an ED50 of 87.6 mg/kg.

`CCN(CC)CC(=O)c1cc(C(=O)c2ccc(Cl)cc2)n(C)c1` [Example 9-4] registered an ED50 of 14.4 mg/kg.

Regarding `Cc1c(C(=O)CN2CCCC2)c(C)n(C)c1C(=O)c1ccc(Cl)cc1` [Example 9-5], the ED50 amounted to 15.2 mg/kg.

Compound `Cn1cc(C(=O)CN2CCCCC2)cc1C(=O)c1ccccc1Cl` [Example 9-10] came in with an ED50 of 5.38 mg/kg. Compared with the last compound, the ED50 is about 2.8-fold lower.

The compound `Cn1cc(C(=O)CN2CCCCCC2)cc1C(=O)c1ccc(Cl)cc1` [Example 9-11] returned an ED50 of 27.5 mg/kg.

The compound `Cn1cc(C(=O)CN2CCCC2)cc1C(=O)c1cccc(Cl)c1` [Example 9-24] came in with an ED50 of 16.5 mg/kg.

Take `Cn1cc(C(=O)CN2CCOCC2)cc1C(=O)c1cccc(Cl)c1` [Example 9-25]: the ED50 worked out at 37.4 mg/kg.

`O=C(CN1CCOCC1)c1c[nH]c(C(=O)c2ccc(Cl)cc2)c1` [Example 9-27]: the ED50 is 86.2 mg/kg. This ED50 lies about 2.3-fold higher than the previous one.

As to `CCN(CC)CC(=O)c1cc(C(=O)c2ccc(OC)cc2)n(C)c1` [Example 9-29], the 50% effect level (ED50) was put at a dose of 33 mg/kg.

On to `Cn1cc(C(=O)CN2CCCC2)cc1C(=O)c1ccc(Cl)cc1` [Example 9-30], for which the 50% effect level (ED50) was put at a dose of 49.1 mg/kg.

`CCN(CC)CC(=O)c1c(C)c(C(=O)c2ccc(Cl)cc2)n(C)c1C` [Example 9-32] gave an ED50 of 10.3 mg/kg.

The compound `CCN(CC)CC(=O)c1c(C)c(C(=O)c2ccc(Cl)cc2Cl)n(C)c1C` [Example 9-34] displayed an ED50 of 14.9 mg/kg. The ED50 values of the last two compounds are within 1.5-fold of each other.
